Measurements taken from patent US20160008277A1, “CO-PACKAGED DRUG PRODUCTS” (Lightlake Therapeutics Inc., priority 2014, published 2016).
Read-outs that look alike come from different tables or passages of the source.

Tests used:
overdose events = settings: cited from earlier work
heroin overdose = settings: cited from earlier work
clinical = settings: human, plasma

C=CCN1CC[C@]23c4c5ccc(O)c4O[C@H]2C(=O)CC[C@@]3(O)[C@H]1C5 [naloxone, 17-allyl-4,5a-epoxy-3,14-dihydroxymorphinan-6-one]
overdose events reversed (overdose events; 399 overdose events where naloxone was used, participant-reported): 89%
participants reporting serious adverse effects (overdose events; take-home naloxone): < 1%
rate of response within 10 minutes (heroin overdose; 2 mg IM naloxone, 69/89): 77.5%
rate of response within 10 minutes (heroin overdose; 2 mg IN naloxone, 60/83): 72.3%
patients administered supplementary naloxone (heroin overdose; IM naloxone): 4.5%
mean response time (heroin overdose; IN naloxone): 8.0 min
mean response time (heroin overdose; IV naloxone): 7.9 min
Cmax (clinical; female, im, 0.4 mg, 0.4 mg IM): 1.06 ng/mL
Tmax (clinical; female, im, 0.4 mg, Tmax (median), 0.4 mg IM): 19.8 min
Tmax (clinical; female, other: intranasal (IN), 4 mg, Tmax (median), One 40 mg/mL IN, Female): 30 min
Tmax (clinical; female, other: intranasal (IN), 8 mg, Tmax (median), Two 40 mg/mL IN, Female): 17.4 min
Cmax (clinical; female, other: intranasal, 2 mg, One 20 mg/mL IN, Female): 2.79 ng/mL
Tmax (clinical; female, other: intranasal, 2 mg, Tmax (median), One 20 mg/mL IN, Female): 19.8 min
Cmax (clinical; female, other: intranasal, 4 mg, One 40 mg/mL IN, Female): 5.12 ng/mL
Cmax (clinical; female, other: intranasal, 4 mg, Two 20 mg/mL IN, Female): 6.62 ng/mL
Tmax (clinical; female, other: intranasal, 4 mg, Tmax (median), Two 20 mg/mL IN, Female): 19.8 min
Cmax (clinical; female, other: intranasal, 8 mg, Two 40 mg/mL IN, Female): 9.52 ng/mL
Cmax (clinical; im, 0.4 mg, mean (% CV), 0.4 mg IM): 0.906 ng/mL
Tmax (clinical; im, 0.4 mg, Tmax (median, range), 0.4 mg IM): 25.2 min
Cmax (clinical; other: intranasal, 2 mg, mean (% CV), One Spray - 2 mg 20 mg/mL IN): 3.11 ng/mL
Tmax (clinical; other: intranasal, 2 mg, Tmax (median, range), One Spray - 2 mg 20 mg/mL IN): 19.8 min
Cmax (clinical; other: intranasal, 4 mg, mean (% CV), One Spray - 4 mg 40 mg/mL IN): 5.34 ng/mL
Cmax (clinical; other: intranasal, 4 mg, mean (% CV), Two Sprays - 4 mg 20 mg/mL IN): 6.63 ng/mL
Tmax (clinical; other: intranasal, 4 mg, Tmax (median, range), One Spray - 4 mg 40 mg/mL IN): 30 min
Tmax (clinical; other: intranasal, 4 mg, Tmax (median, range), Two Sprays - 4 mg 20 mg/mL IN): 19.8 min
Cmax (clinical; other: intranasal, 8 mg, mean (% CV), Two Sprays - 8 mg 40 mg/mL IN): 10.3 ng/mL
Tmax (clinical; other: intranasal, 8 mg, Tmax (median, range), Two Sprays - 8 mg 40 mg/mL IN): 19.8 min
Cmax (clinical; male, im, 0.4 mg, 0.4 mg IM): 0.792 ng/mL
Tmax (clinical; male, im, 0.4 mg, Tmax (median), 0.4 mg IM): 30 min
Tmax (clinical; male, other: intranasal (IN), 4 mg, Tmax (median), One 40 mg/mL IN, Male): 30 min
Tmax (clinical; male, other: intranasal (IN), 8 mg, Tmax (median), Two 40 mg/mL IN, Male): 25.2 min
Cmax (clinical; male, other: intranasal, 2 mg, One 20 mg/mL IN, Male): 3.35 ng/mL
Tmax (clinical; male, other: intranasal, 2 mg, Tmax (median), One 20 mg/mL IN, Male): 19.8 min
Cmax (clinical; male, other: intranasal, 4 mg, One 40 mg/mL IN, Male): 5.51 ng/mL
Cmax (clinical; male, other: intranasal, 4 mg, Two 20 mg/mL IN, Male): 6.64 ng/mL
Tmax (clinical; male, other: intranasal, 4 mg, Tmax (median), Two 20 mg/mL IN, Male): 15 min
Cmax (clinical; male, other: intranasal, 8 mg, Two 40 mg/mL IN, Male): 10.9 ng/mL
